Laboratory results reported in article PMC10990149 (Proceedings of the National Academy of Sciences of the …, 2024).

Biological target: T1, DvhD (DVU1020), cytoplasmic fragment (PAS and HD-GYP domains) (Nitratidesulfovibrio vulgaris, UniProt Q72DA9)
T1 sequence (Q72DA9 374-701): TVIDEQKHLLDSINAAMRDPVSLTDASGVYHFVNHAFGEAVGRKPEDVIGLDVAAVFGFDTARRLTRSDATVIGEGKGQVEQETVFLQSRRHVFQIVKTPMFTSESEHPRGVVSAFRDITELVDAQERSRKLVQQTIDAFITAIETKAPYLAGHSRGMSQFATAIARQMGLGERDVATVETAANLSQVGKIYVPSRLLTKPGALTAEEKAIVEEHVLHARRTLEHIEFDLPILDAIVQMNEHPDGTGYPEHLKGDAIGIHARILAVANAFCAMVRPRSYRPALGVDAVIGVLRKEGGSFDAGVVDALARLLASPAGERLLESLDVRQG
Experiment: isothermal titration calorimetry
Type: binding

Kd: 322 ± 81 nM
Structure (SMILES): Nc1nc2c(ncn2[C@@H]2O[C@@H]3CO[P@](=O)(O)O[C@H]4[C@@H](O)[C@H](n5cnc6c(=O)[nH]c(N)nc65)O[C@@H]4CO[P@](=O)(O)O[C@H]3[C@H]2O)c(=O)[nH]1 [c-di-GMP]
